Test system: P. aeruginosa ATCC BAA-3107 (SEN) and P. aeruginosa LESB58 (MDR)
Assay: Adaptive laboratory evolution (ALE), relative MIC of evolved lines
Type: cell-based, Pseudomonas aeruginosa
Excerpt: Using the same set of bacterial strains, we initiated adaptive laboratory evolution with the aim to maximize the level of antibiotic resistance in the populations achieved during a longer, but fixed time period.
An established protocol for adaptive laboratory evolution[46],[73] was followed to propagate populations with the highest resistance levels. Starting with an antibiotic concentration that caused approximately 50% growth inhibition, ten parallel populations for each antibiotic-ancestor strain combination were grown for 72 hours at 37 °C with continuous shaking (300 RPM). MHB broth medium was used unless stated otherwise. After each incubation, 20 µl of each culture was transferred to four new wells containing fresh medium with increasing antibiotic concentrations (0.5×, 1×, 1.5×, and 2.5× the previous concentration) in a chessboard layout to monitor potential cross-contamination. Growth was monitored by measuring OD600 using a Biotek Synergy 2 microplate reader, and only populations grown in the highest drug concentration with an OD600 > 0.2 were transferred further.
A robotic liquid handling system was used to automatically prepare a 11 to 16-step serial dilution in 384-well microtiter plates (Greiner). A final concentration of 5 × 10^5 bacterial cells per mL were inoculated into each well containing 60 µL MHB medium. Bacterial cultures were incubated at 37 °C with continuous shaking (Infors shaker, 900 rpm with 3 mm throw) for 18 hours (2 replicates from each). Cell growth was monitored by measuring the optical density (OD600 values, using Biotek Synergy microplate reader). MIC was defined as the antibiotic concentration of complete growth inhibition (i.e., OD600 < 0.05). Relative MIC was calculated as follows:1 relativeMIC=MICevolved/MICancestor […]
Supplementary Figure 4. Resistance levels following adaptive laboratory evolution across bacterial strains. The level of resistance was measured as the fold change in relative MIC between evolved and ancestral strains after ~60 days of adaptive laboratory evolution. Data are grouped by bacterial strain (A. baumannii (AB), E. coli (EC), K. pneumoniae (KP), and P. aeruginosa (PA)) and categorized as either multidrug-resistant (MDR) or sensitive (SEN). Each data point represents a laboratory evolved line, and boxplots show the median, first and third quartiles, with whiskers indicating the 5th and 95th percentiles.
Statistical analysis was performed using two-sided Dunn’s post-hoc test with Benjamini-Hochberg correction for multiple comparisons (****/ ***/ **/ * indicates p < 0.0001/ 0.001/ 0.01/ 0.05). For detailed information on antibiotic and bacterial species, see Supplementary Table 1. For mode of action groups, refer to Table 1. Source data are provided as a Source Data file.

[1] = PA-SEN (Pseudomonas aeruginosa ATCC BAA 3107), evolved line 2 adapted to the named antibiotic
[2] = PA-SEN (Pseudomonas aeruginosa ATCC BAA 3107), evolved line 4 adapted to the named antibiotic
[3] = PA-SEN (Pseudomonas aeruginosa ATCC BAA 3107), evolved line 10 adapted to the named antibiotic
[4] = PA-SEN, Pseudomonas aeruginosa ATCC BAA 3107, evolved line 1
[5] = PA-SEN, Pseudomonas aeruginosa ATCC BAA 3107, evolved line 1 versus ancestor
[6] = PA-SEN, Pseudomonas aeruginosa ATCC BAA 3107, evolved line 2
[7] = PA-SEN, Pseudomonas aeruginosa ATCC BAA 3107, evolved line 2 versus ancestor
[8] = PA-SEN, Pseudomonas aeruginosa ATCC BAA 3107, evolved line 3
[9] = PA-SEN, Pseudomonas aeruginosa ATCC BAA 3107, evolved line 3 versus ancestor
[10] = PA-SEN, Pseudomonas aeruginosa ATCC BAA 3107, evolved line 4
[11] = PA-SEN, Pseudomonas aeruginosa ATCC BAA 3107, evolved line 4 versus ancestor
[12] = PA-SEN, Pseudomonas aeruginosa ATCC BAA 3107, evolved line 5
[13] = PA-SEN, Pseudomonas aeruginosa ATCC BAA 3107, evolved line 5 versus ancestor
[14] = PA-SEN, Pseudomonas aeruginosa ATCC BAA 3107, evolved line 6
[15] = PA-SEN, Pseudomonas aeruginosa ATCC BAA 3107, evolved line 6 versus ancestor
[16] = PA-SEN, Pseudomonas aeruginosa ATCC BAA 3107, evolved line 7
[17] = PA-SEN, Pseudomonas aeruginosa ATCC BAA 3107, evolved line 7 versus ancestor
[18] = PA-SEN, Pseudomonas aeruginosa ATCC BAA 3107, evolved line 8
[19] = PA-SEN, Pseudomonas aeruginosa ATCC BAA 3107, evolved line 8 versus ancestor
[20] = PA-SEN, Pseudomonas aeruginosa ATCC BAA 3107, evolved line 9
[21] = PA-SEN, Pseudomonas aeruginosa ATCC BAA 3107, evolved line 9 versus ancestor
[22] = PA-SEN, Pseudomonas aeruginosa ATCC BAA 3107, evolved line 10
[23] = PA-SEN, Pseudomonas aeruginosa ATCC BAA 3107, evolved line 10 versus ancestor
[24] = PA-SEN (Pseudomonas aeruginosa ATCC BAA 3107), evolved line 1 adapted to the named antibiotic
[25] = PA-SEN (Pseudomonas aeruginosa ATCC BAA 3107), evolved line 6 adapted to the named antibiotic
[26] = PA-SEN (Pseudomonas aeruginosa ATCC BAA 3107), evolved line 9 adapted to the named antibiotic
[27] = PA-MDR (Pseudomonas aeruginosa LESB 58), evolved line 1
[28] = PA-MDR (Pseudomonas aeruginosa LESB 58), evolved line 6
[29] = PA-MDR, Pseudomonas aeruginosa LESB 58, evolved line 9
[30] = PA-MDR, Pseudomonas aeruginosa LESB 58, evolved line 10
[31] = PA-MDR, Pseudomonas aeruginosa LESB 58, evolved line 2
[32] = PA-MDR, Pseudomonas aeruginosa LESB 58, evolved line 3
[33] = PA-MDR, Pseudomonas aeruginosa LESB 58, evolved line 4
[34] = PA-MDR, Pseudomonas aeruginosa LESB 58, evolved line 5
[35] = PA-MDR, Pseudomonas aeruginosa LESB 58, evolved line 7
[36] = PA-MDR, Pseudomonas aeruginosa LESB 58, evolved line 8

## CN(C)[C@@H]1C(O)=C(C(N)=O)C(=O)[C@@]2(O)C(O)=C3C(=O)c4c(O)c(NC(=O)CN5CCCC5)cc(F)c4C[C@H]3C[C@@H]12 [Eravacycline]
[1]
  Relative MIC (log10): 1.505
[2]
  Relative MIC (log10): 1.505
PA-SEN (Pseudomonas aeruginosa ATCC BAA 3107), evolved line 5 adapted to the named antibiotic
  Relative MIC (log10): 1.806
PA-SEN (Pseudomonas aeruginosa ATCC BAA 3107), evolved line 7 adapted to the named antibiotic
  Relative MIC (log10): 1.204
[3]
  Relative MIC (log10): 1.505
[4]
  MIC of evolved line: 128 µg/mL
[5]
  Relative MIC: 32
[6]
  MIC of evolved line: 128 µg/mL
[7]
  Relative MIC: 32
[8]
  MIC of evolved line: 256 µg/mL
[9]
  Relative MIC: 64
[10]
  MIC of evolved line: 128 µg/mL
[11]
  Relative MIC: 32
[12]
  MIC of evolved line: 256 µg/mL
[13]
  Relative MIC: 64
[14]
  MIC of evolved line: 128 µg/mL
[15]
  Relative MIC: 32
[16]
  MIC of evolved line: 64 µg/mL
[17]
  Relative MIC: 16
[18]
  MIC of evolved line: 64 µg/mL
[19]
  Relative MIC: 16
[20]
  MIC of evolved line: 64 µg/mL
[21]
  Relative MIC: 16
[22]
  MIC of evolved line: 128 µg/mL
[23]
  Relative MIC: 32
Pseudomonas aeruginosa ATCC BAA 3107 (PA-SEN), evolved line 1
  Relative MIC: 32
Pseudomonas aeruginosa ATCC BAA 3107 (PA-SEN), evolved line 2
  Relative MIC: 32
Pseudomonas aeruginosa ATCC BAA 3107 (PA-SEN), evolved line 3
  Relative MIC: 64
Pseudomonas aeruginosa ATCC BAA 3107 (PA-SEN), evolved line 4
  Relative MIC: 32
Pseudomonas aeruginosa ATCC BAA 3107 (PA-SEN), evolved line 5
  Relative MIC: 64
Pseudomonas aeruginosa ATCC BAA 3107 (PA-SEN), evolved line 6
  Relative MIC: 32
Pseudomonas aeruginosa ATCC BAA 3107 (PA-SEN), evolved line 7
  Relative MIC: 16
Pseudomonas aeruginosa ATCC BAA 3107 (PA-SEN), evolved line 8
  Relative MIC: 16
Pseudomonas aeruginosa ATCC BAA 3107 (PA-SEN), evolved line 9
  Relative MIC: 16
Pseudomonas aeruginosa ATCC BAA 3107 (PA-SEN), evolved line 10
  Relative MIC: 32

## CNC(C)C1CCC(N)C(OC2C(N)CC(N)C(OC3OCC(C)(O)C(NC)C3O)C2O)O1 (stereo not shown) [Gentamicin]
[24]
  Relative MIC (log10): 2.107
[1]
  Relative MIC (log10): 1.806
[25]
  Relative MIC (log10): 1.806
[26]
  Relative MIC (log10): 2.107
[3]
  Relative MIC (log10): 2.408
[4]
  MIC of evolved line: 128 µg/mL
  Relative MIC: 128
[5]
  Relative MIC: 128
[6]
  MIC of evolved line: 64 µg/mL
  Relative MIC: 64
[7]
  Relative MIC: 64
[10]
  MIC of evolved line: 128 µg/mL
  Relative MIC: 128
[11]
  Relative MIC: 128
[14]
  MIC of evolved line: 64 µg/mL
  Relative MIC: 64
[15]
  Relative MIC: 64
[18]
  MIC of evolved line: 256 µg/mL
  Relative MIC: 256
[19]
  Relative MIC: 256
[20]
  MIC of evolved line: 128 µg/mL
  Relative MIC: 128
[21]
  Relative MIC: 128
[22]
  MIC of evolved line: 256 µg/mL
  Relative MIC: 256
[23]
  Relative MIC: 256

## O=c1ccc2ncc(=O)n3c2n1C[C@H]3CN1CCC(NCc2cc3c(cn2)OCCC3)CC1 [Gepotidacin]
[27]
  MIC of evolved line: 128 µg/mL
  Relative MIC: 32
PA-MDR (Pseudomonas aeruginosa LESB 58), evolved line 1 adapted to the named antibiotic
  Relative MIC (log10): 1.505
PA-MDR (Pseudomonas aeruginosa LESB 58), evolved line 2 adapted to the named antibiotic
  Relative MIC (log10): 1.505
PA-MDR (Pseudomonas aeruginosa LESB 58), evolved line 5 adapted to the named antibiotic
  Relative MIC (log10): 1.505
[28]
  MIC of evolved line: 128 µg/mL
  Relative MIC: 32
PA-MDR (Pseudomonas aeruginosa LESB 58), evolved line 7 adapted to the named antibiotic
  Relative MIC (log10): 1.505
PA-MDR (Pseudomonas aeruginosa LESB 58), evolved line 8 adapted to the named antibiotic
  Relative MIC (log10): 1.505
PA-MDR, Pseudomonas aeruginosa LESB 58, evolved line 1 versus ancestor
  Relative MIC: 32
PA-MDR, Pseudomonas aeruginosa LESB 58, evolved line 2 versus ancestor
  Relative MIC: 32
PA-MDR, Pseudomonas aeruginosa LESB 58, evolved line 3 versus ancestor
  Relative MIC: 32
PA-MDR, Pseudomonas aeruginosa LESB 58, evolved line 4 versus ancestor
  Relative MIC: 32
PA-MDR, Pseudomonas aeruginosa LESB 58, evolved line 5 versus ancestor
  Relative MIC: 32
PA-MDR, Pseudomonas aeruginosa LESB 58, evolved line 6 versus ancestor
  Relative MIC: 32
PA-MDR, Pseudomonas aeruginosa LESB 58, evolved line 7 versus ancestor
  Relative MIC: 32
PA-MDR, Pseudomonas aeruginosa LESB 58, evolved line 8 versus ancestor
  Relative MIC: 32
[29]
  MIC of evolved line: 64 µg/mL
  Relative MIC: 16
PA-MDR, Pseudomonas aeruginosa LESB 58, evolved line 9 versus ancestor
  Relative MIC: 16
[30]
  MIC of evolved line: 128 µg/mL
  Relative MIC: 32
PA-MDR, Pseudomonas aeruginosa LESB 58, evolved line 10 versus ancestor
  Relative MIC: 32
[31]
  MIC of evolved line: 128 µg/mL
  Relative MIC: 32
[32]
  MIC of evolved line: 128 µg/mL
  Relative MIC: 32
[33]
  MIC of evolved line: 128 µg/mL
  Relative MIC: 32
[34]
  MIC of evolved line: 128 µg/mL
  Relative MIC: 32
[35]
  MIC of evolved line: 128 µg/mL
  Relative MIC: 32
[36]
  MIC of evolved line: 128 µg/mL
  Relative MIC: 32
[24]
  Relative MIC (log10): 1.806
[2]
  Relative MIC (log10): 1.806
[25]
  Relative MIC (log10): 1.806
[26]
  Relative MIC (log10): 1.806
[3]
  Relative MIC (log10): 1.806
[4]
  MIC of evolved line: 256 µg/mL
  Relative MIC: 64
[5]
  Relative MIC: 64
[6]
  MIC of evolved line: 256 µg/mL
  Relative MIC: 64
[7]
  Relative MIC: 64
[8]
  MIC of evolved line: 128 µg/mL
  Relative MIC: 32
[9]
  Relative MIC: 32
[10]
  MIC of evolved line: 256 µg/mL
  Relative MIC: 64
[11]
  Relative MIC: 64
[12]
  MIC of evolved line: 128 µg/mL
  Relative MIC: 32
[13]
  Relative MIC: 32
[14]
  MIC of evolved line: 256 µg/mL
  Relative MIC: 64
[15]
  Relative MIC: 64
[16]
  MIC of evolved line: 256 µg/mL
  Relative MIC: 64
[17]
  Relative MIC: 64
[18]
  MIC of evolved line: 128 µg/mL
  Relative MIC: 32
[19]
  Relative MIC: 32
[20]
  MIC of evolved line: 256 µg/mL
  Relative MIC: 64
[21]
  Relative MIC: 64
[22]
  MIC of evolved line: 256 µg/mL
  Relative MIC: 64
[23]
  Relative MIC: 64

## C[C@@H](O)[C@H]1C(=O)N2C(C(=O)O)=C(S[C@@H]3CN[C@H](C(=O)N(C)C)C3)[C@H](C)[C@H]12 [Meropenem]
[29]
  MIC of evolved line: 256 µg/mL
[30]
  MIC of evolved line: 32 µg/mL
[4]
  MIC of evolved line: 16 µg/mL
[6]
  MIC of evolved line: 64 µg/mL
[10]
  MIC of evolved line: 64 µg/mL
[14]
  MIC of evolved line: 64 µg/mL
[18]
  MIC of evolved line: 32 µg/mL
[22]
  MIC of evolved line: 64 µg/mL

Source: article PMC11845477, “Exploring the principles behind antibiotics with limited resistance” (Nature Communications, 2025)
